Data on 13 molecules can be found in paper PMC10683025, “Discovery of a Hydroxylamine-Based Brain-Penetrant EGFR Inhibitor for Metastatic Non-Small-Cell Lung Cancer” (Journal of Medicinal Chemistry, 2023).

Where two headings read alike, the source gives them in different places.

The test system of series [1] is TA100. Details: species or system Salmonella. The procedure:
(§1) Compounds were assessed for mutagenicity at the Eurofins Panlabs in 384-well plates using four Salmonella strains: TA98, to probe for frameshift mutation (with quercetin as control), TA100 and TA1535, to probe for base pair insertions/deletions (with streptozotocin as control), and TA1537, to probe for frameshift mutations (with aminacridine as control) as previously described.[78] […] A concurrent bacterial cytotoxicity assay was run at 0.6, 1.2, 2.5, 5, 10, 25, 50, and 100 μM to rule out false negatives. Bacterial cytotoxicity was expressed as percent of control growth (OD650). Compounds with growth of less than 60% control were flagged and considered bacterial cytotoxic. […] Significances of the positive counts between the treatment and control were determined using a one-tailed Fisher’s exact test.

In series [2] the test system is TA1537. Details: species or system Salmonella. The procedure: as §1;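 on Count (# of wells): Revertant-positive wells among 48 replicate wells per concentration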
Series [3] has as its system TA98. Details: species or system Salmonella. The procedure:
as §1

Series [4] has as its system TA1535. Details: species or system Salmonella.
Series [5] in a line: Plasma stability. It is filed as in vitro ADME, human. The conditions noted are these: human plasma. Here is the method: (§2) Assessment of compounds to determine stability in incubations containing plasma of human (Pharmaron) and Sprague-Dawley rat (IPHASE) was performed by Pharmaron, Inc. using the compound […] approach. Compounds were assessed in duplicate (n = 2) and incubated in plasma at 5 μM and samples (50 μL) were taken at 0, 15, 30, 60, and 120 min time points for analysis by LC-MS/MS. Peak area ratios were determined from the extracted ion chromatogram and the percent compound remaining at each time point was calculated by the following equation: [drawing 2] where peak area ratiot min is the peak area ratio of control and test compound at t min and peak area ratio0 min is the peak area ratio of control and test compound at zero time point.

Series [6] has as its system P-gp and BCRP. Details: method as in ref 17−20. Conditions: ref 17−20; cited from earlier work.
A short description of series [7]: Caco-2 permeability. It is filed as in vitro ADME. The conditions noted are these: human; for efflux ratio at 2 h, 5 μM / Papp A→B at 2 h, 5 μM / Papp B→A at 2 h, 5 μM: Caco-2; for recovery at 2 h, 5 μM: Caco-2, Caco-2. For orientation: Caco-2 cells form a polarised layer with tight junctions and transporters.
Method: (§4) A 96-well HTS Transwell plate (Corning) was used for Caco-2 and MDCKII-MDR1 cell seeding. […] Plates were incubated at 37 °C for 2 h, and samples (50 μL) were taken at the beginning and end of the incubation in both the donor and acceptor wells with the assay run in duplicate (n = 2). Samples were analyzed by LC-MS/MS.
(§5) The efflux ratio was determined by using the following equation: [drawing 4] where Papp (B–A) indicates the apparent permeability in the basolateral to apical direction and Papp (A–B) indicates the apparent permeability in the apical to basolateral direction.
Series [8] is described as follows: MDCKII-MDR1 permeability. It is filed as in vitro ADME, canine. Conditions: dog, MDCK-MDR1, MDCKII-MDR1.
Method: as §4, §5
The subject of series [9] is MDR1. Kind of series: MDCKII-MDR1 permeability. Format: in vitro ADME, canine. Conditions: dog, MDCK-MDR1.
Method: as §4, §5
A short description of series [10]: Brain tissue binding by equilibrium dialysis. Conditions: rat. Format: in vitro ADME. The procedure: (§3) Plasma protein binding and brain tissue binding were determined by Pharmaron, Inc. using the equilibrium dialysis method. […] Following incubation, the samples were analyzed by LC-MS/MS and the concentrations of the compounds were determined in the buffer and plasma solution chambers.
For orientation: Equilibrium dialysis compares concentrations on both sides of a semipermeable membrane.

Series [11] is described as follows: Brain tissue binding by equilibrium dialysis. The conditions noted are these: CD-1, mouse. It is filed as in vitro ADME, mouse. The procedure:
as §3

The nature of series [12]: Plasma stability. Format: in vitro ADME, Sprague-Dawley rat. The conditions noted are these: rat plasma. The procedure: as §2

On to `Nc1c2ccccc2nc2ccccc12` [9-Aminoacridine, reference compound], for which the “Count (# of wells)” value amounted to 3 in [1] (TA100+S9, 1.0E-05 M); 2 in series [1] (TA100-S9, 1.0E-05 M); 17 in [2] (TA1537+S9, 1.0E-05 M); 11 in series [2] (TA1537-S9, 1.0E-05 M); 1 in [3] (TA98+S9, 1.0E-05 M); 0 in series [3] (TA98-S9, 1.0E-05 M). In addition, the “Count (# of wells)” value in series [4] (TA1535+S9, 1.0E-05 M) is listed as 0; in series [4] (TA1535-S9, 1.0E-05 M) it was 1. The “Positive Significance (- to +++)” value in [1] (TA100+S9, 1.0E-05 M) is reported as “-”; in [1] (TA100-S9, 1.0E-05 M), “-”; in [2] (TA1537-S9, 1.0E-05 M) it was “++ (strong positive, if P < 0.01 (denoted as “++”))”; in series [3] (TA98+S9, 1.0E-05 M), “-”; in series [3] (TA98-S9, 1.0E-05 M), “-”; in [4] (TA1535+S9, 1.0E-05 M), “-”. The “Positive Significance (- to +++)” value in series [4] (TA1535-S9, 1.0E-05 M) is recorded as “-”.
As usually defined, the half-life is how long it takes for the measured level to halve. Low readings indicate fast loss, high ones slow loss. With `CC(C)[N+](C)(CCOC(=O)C1c2ccccc2Oc2ccccc21)C(C)C` [Propantheline, reference compound], the “Remaining Percentages” value in series [5] (15 min) was 69.10%; in series [5] (30 min) it was 48.79%; in series [5] (60 min), 22.07%; in series [5] (120 min), 4.85%. The half-life at 5 μM in series [5] (∞ = no degradation) is 27.6 min.
Turning to `COc1cc2ncnc(Nc3ccc(F)c(Cl)c3)c2cc1NC(=O)/C=C/CN1CCCCC1` [Dacomitinib], the “efflux status against common efflux transporters” value (shortened to “efflux status”) in series [6] is “P-gp and BCRP Substrate”.
Usually efflux ratio stands for the permeability from basolateral to apical divided by that in the opposite direction, in the common usage. One may read the Papp A→B as how fast a substance crosses the layer from the apical side. Low values mean poor permeation, high ones ready permeation. For orientation: Papp B→A means how fast a substance crosses the layer from the basolateral side. In the case of `COCCc1ccc(OCC(O)CNC(C)C)cc1` (centres unmarked) [Metoprolol, reference compound], in [7], the efflux ratio at 2 h, 5 μM amounted to 0.89; the Papp A→B at 2 h, 5 μM was 24.9 ×10⁻⁶ cm/s; the apparent permeability from basolateral to apical (Papp B→A) at 2 h, 5 μM came to 22.2 ×10⁻⁶ cm/s. The recovery at 2 h, 5 μM in series [7] (read-out: Recovery% (AP-BL)) came to 97.4%. Moreover, the recovery at 2 h, 5 μM in series [7] (read-out: Recovery% (BL-AP)) was 98.4%. Further, in series [8] (read-out: Recovery% (AP-BL)), the recovery at 2 h, 1 μM was 105%. Also, the recovery at 2 h, 1 μM in series [8] (read-out: Recovery% (BL-AP)) came to 98.4%. In [9], the efflux ratio at 2 h, 1 μM worked out at 0.81; the Papp A→B at 2 h, 1 μM was determined as 25.9 ×10⁻⁶ cm/s; the Papp B→A at 2 h, 1 μM was 20.9 ×10⁻⁶ cm/s.
Turning to `C[C@H]1O[C@@H](O[C@H]2[C@@H](O)C[C@H](O[C@H]3[C@@H](O)C[C@H](O[C@H]4CC[C@@]5(C)[C@H](CC[C@@H]6[C@@H]5C[C@@H](O)[C@]5(C)[C@@H](C7=CC(=O)OC7)CC[C@]65O)C4)O[C@@H]3C)O[C@@H]2C)C[C@H](O)[C@@H]1O` [Digoxin, reference compound], in series [7], the efflux ratio at 2 h, 5 μM was 50.1; the Papp A→B at 2 h, 5 μM worked out at 0.27 ×10⁻⁶ cm/s; the Papp B→A at 2 h, 5 μM was 13.4 ×10⁻⁶ cm/s. Moreover, in series [7] (read-out: Recovery% (AP-BL)), the recovery at 2 h, 5 μM was 108%. Further, in series [7] (read-out: Recovery% (BL-AP)), the recovery at 2 h, 5 μM worked out at 96.2%. In [8] (read-out: Recovery% (AP-BL)), the recovery at 2 h, 1 μM turned out to be 98.8%. The recovery at 2 h, 1 μM in series [8] (read-out: Recovery% (BL-AP)) was 100%. Moreover, in series [9], the efflux ratio at 2 h, 1 μM was 40.6; the Papp A→B at 2 h, 1 μM is 0.25 ×10⁻⁶ cm/s; the Papp B→A at 2 h, 1 μM is 10.2 ×10⁻⁶ cm/s.
Regarding `CCCc1nc2c(C)cc(-c3nc4ccccc4n3C)cc2n1Cc1ccc(-c2ccccc2C(=O)O)cc1` [Telmisartan, reference compound], the recovery at 6 h, 5 μM in series [10] (Sprague-Dawley (SD), rat brain homogenate) is 107%; in series [11] (mouse brain homogenate), 109%. The fraction unbound at 6 h, 5 μM is 0.0146 in [10] (Sprague-Dawley, brain homogenate, read-out: fu,brain% / %Unboundbrain); 0.0146 in series [10] (Sprague-Dawley, rat brain homogenate, read-out: %Boundbrain (converted)); 0.0143 in series [11] (brain homogenate, read-out: fu,brain% / %Unboundbrain); 0.0143 in series [11] (mouse brain homogenate, read-out: %Unboundbrain (converted)). The share remaining at 6 h, 5 μM in series [10] (Sprague-Dawley, rat brain homogenate) is 100%; in series [11] (mouse brain homogenate), 108%.
Consider `C#Cc1cccc(Nc2ncnc3cc(OCCOC)c(OCCOC)cc23)c1` [Erlotinib], for which, in [6], the “efflux status” value was “P-gp and BCRP Substrate”.
On to `C=CC(=O)Nc1cc(Nc2nccc(-c3cn(C)c4ccccc34)n2)c(OC)cc1N(C)CCN(C)C` [Osimertinib], for which, in series [6], the “efflux status” value is “Moderate P-gp and BCRP Substrate”.
In the case of `Nc1ccc2cc3ccccc3cc2c1` [2-Aminoanthracene, reference compound], the “Count (# of wells)” value in series [1] (TA100+S9, 1.0E-06 M) is on record as 21; in series [1] (TA100-S9, 5.0E-06 M) it was 4; in series [2] (TA1537+S9, 1.0E-05 M) it was 14; in series [2] (TA1537-S9, 5.0E-06 M) it was 1; in [3] (TA98+S9, 2.0E-06 M) it was 47; in [3] (TA98-S9, 5.0E-06 M), 1. Also, the “Count (# of wells)” value in series [4] (TA1535+S9, 5.0E-06 M) is given as 15. The “Positive Significance (- to +++)” value in [1] (TA100-S9, 5.0E-06 M) is recorded as “-”; in series [2] (TA1537+S9, 1.0E-05 M) it was “++ (strong positive, if P < 0.01 (denoted as “++”))”; in series [2] (TA1537-S9, 5.0E-06 M), “-”; in series [3] (TA98-S9, 5.0E-06 M), “-”.
As to `CN(N=O)C(=O)N[C@H]1C(O)O[C@H](CO)[C@@H](O)[C@@H]1O` (mixture of isomers) [Streptozotocin, reference compound], the “Count (# of wells)” value in series [1] (TA100+S9, 2.5E-06 M) worked out at 39; in series [1] (TA100-S9, 2.5E-06 M) it was 42; in [2] (TA1537+S9, 2.5E-06 M), 7; in series [2] (TA1537-S9, 2.5E-06 M), 2; in [3] (TA98+S9, 2.5E-06 M), 2; in series [3] (TA98-S9, 2.5E-06 M) it was 1. The “Count (# of wells)” value was 48 in series [4] (TA1535+S9, 2.5E-06 M) and 2 in [4] (TA1535-S9, 2.5E-06 M). Moreover, the “Positive Significance (- to +++)” value in series [2] (TA1537+S9, 2.5E-06 M) is listed as “-”; in series [2] (TA1537-S9, 2.5E-06 M), “-”; in series [3] (TA98+S9, 2.5E-06 M), “-”; in series [3] (TA98-S9, 2.5E-06 M), “-”; in series [4] (TA1535-S9, 2.5E-06 M), “-”.
`CC[C@H](C)C(=O)O[C@H]1C[C@@H](C)C=C2C=C[C@H](C)[C@H](CC[C@@H]3C[C@@H](O)CC(=O)O3)[C@H]21` [Mevinolin, reference compound] returned a half-life at 5 μM in series [12] (Sprague-Dawley, ∞ = no degradation) of 2.49 min. The “Remaining Percentages” value turned out to be 1.54% in series [12] (15 min), 0.42% in series [12] (30 min), 0.30% in series [12] (60 min) and 0.27% in series [12] (120 min).
Consider `CN(C)C/C=C/C(=O)Nc1cc2c(Nc3ccc(F)c(Cl)c3)ncnc2cc1O[C@H]1CCOC1` [Afatinib], for which the “efflux status” value in [6] is “P-gp and BCRP Substrate”.
`O=c1c(O)c(-c2ccc(O)c(O)c2)oc2cc(O)cc(O)c12` [Quercetin, reference compound]: the “Count (# of wells)” value in series [1] (TA100+S9, 1.0E-05 M) amounted to 5; in [1] (TA100-S9, 1.0E-05 M), 1; in series [2] (TA1537+S9, 3.0E-05 M) it was 6; in series [2] (TA1537-S9, 1.0E-05 M), 1; in series [3] (TA98+S9, 1.0E-05 M) it was 30; in series [3] (TA98-S9, 1.0E-05 M) it was 12. The “Count (# of wells)” value in series [4] (TA1535+S9, 1.0E-05 M) is 4. Also, the “Positive Significance (- to +++)” value in [1] (TA100+S9, 1.0E-05 M) is on record as “-”; in series [2] (TA1537+S9, 3.0E-05 M), “-”; in [2] (TA1537-S9, 1.0E-05 M), “-”; in series [4] (TA1535+S9, 1.0E-05 M) it was “-”.
